Experimental data published in patent US7838534B2, “Quinuclidine derivatives as M3 antagonists” (Chiesi Farmaceutici S.p.A., priority 2006, dated 2010).

Test: lung retention after intratracheal administration (lung homogenate, plasma)
Format: in vivo
Conditions: guinea pig lung; for C48L/C0.5L (amount in the lung 48 hours vs 0.5 hours after administration): intratracheal administration
Source text: MRTL and […]/C0.5L (%) are two meaningful and predictive parameters of the duration of a drug's effect after single dose pulmonary administration.

SMILES	C48L/C0.5L (amount in the lung 48 hours vs 0.5 hours after administration)	MRT (lung homogenate, inhaled or intranasal, intratracheal 10 nmol/kg, read-out: MRTL (Mean Residence Time in the Lung))
C[N+]1(C)[C@@H]2C[C@@H](OC(=O)C(O)(c3cccs3)c3cccs3)C[C@H]1[C@@H]1O[C@@H]12 [tiotropium bromide]	2.3%	7.1 h
CC(C)[N+]1(C)[C@@H]2CC[C@H]1CC(OC(=O)C(CO)c1ccccc1)C2.[Br-] (stereo partly drawn) [ipratropium bromide]	0.3%	
